# Assays:
# [1] = target: T1, Signal transducer and activator of transcription 1-alpha/beta (Homo sapiens, UniProt P42224); experiment: Electrophoretic Mobility Shift Assay (EMSA); settings: pH 7.8; 22 °C
# T1 sequence (P42224 whole entry): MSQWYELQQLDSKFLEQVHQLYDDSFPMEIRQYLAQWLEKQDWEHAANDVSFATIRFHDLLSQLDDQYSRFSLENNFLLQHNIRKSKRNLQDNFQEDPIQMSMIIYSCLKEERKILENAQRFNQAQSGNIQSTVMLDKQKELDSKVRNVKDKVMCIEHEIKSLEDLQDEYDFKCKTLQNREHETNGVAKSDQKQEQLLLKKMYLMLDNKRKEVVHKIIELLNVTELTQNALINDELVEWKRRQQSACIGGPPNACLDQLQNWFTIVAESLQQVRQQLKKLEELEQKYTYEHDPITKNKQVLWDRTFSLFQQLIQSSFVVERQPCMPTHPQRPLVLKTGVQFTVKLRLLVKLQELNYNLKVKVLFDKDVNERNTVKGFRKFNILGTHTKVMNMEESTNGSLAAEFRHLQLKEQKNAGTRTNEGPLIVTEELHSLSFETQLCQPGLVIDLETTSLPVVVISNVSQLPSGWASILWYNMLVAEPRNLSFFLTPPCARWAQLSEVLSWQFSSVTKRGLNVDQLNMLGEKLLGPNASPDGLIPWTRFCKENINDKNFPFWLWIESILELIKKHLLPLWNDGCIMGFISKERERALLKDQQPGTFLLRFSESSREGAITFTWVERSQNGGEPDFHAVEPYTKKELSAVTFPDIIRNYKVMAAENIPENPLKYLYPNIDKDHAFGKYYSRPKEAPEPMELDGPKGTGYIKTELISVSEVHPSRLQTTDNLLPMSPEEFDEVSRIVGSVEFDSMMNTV
# Procedure: (§1) STAT proteins were expressed in Sf9 cells from a baculovirus encoding the recombinant protein. A nuclear extract of the Sf9 cells was incubated with 32P-labeled high affinity c-fos sis inducible element (hSIE) either alone or in the presence of inhibitor. After incubation, samples were electrophoresed on polyacrylamide gels. The gels were dried, exposed to a phosphorimager screen and scanned. IC50 values were derived from plots of spot intensity versus phosphopeptide concentration. The affinity of peptides to the SH2 domain is measured by the intensity of the radioactivity of the Stat-DNA complex band in the electrophoresis gel.
# [2] = target: Signal transducer and activator of transcription 3 (Mus musculus, UniProt P42227); experiment: Electrophoretic Mobility Shift Assay (EMSA); settings: pH 7.8; 22 °C
# Sequence of Signal transducer and activator of transcription 3 (P42227 whole entry): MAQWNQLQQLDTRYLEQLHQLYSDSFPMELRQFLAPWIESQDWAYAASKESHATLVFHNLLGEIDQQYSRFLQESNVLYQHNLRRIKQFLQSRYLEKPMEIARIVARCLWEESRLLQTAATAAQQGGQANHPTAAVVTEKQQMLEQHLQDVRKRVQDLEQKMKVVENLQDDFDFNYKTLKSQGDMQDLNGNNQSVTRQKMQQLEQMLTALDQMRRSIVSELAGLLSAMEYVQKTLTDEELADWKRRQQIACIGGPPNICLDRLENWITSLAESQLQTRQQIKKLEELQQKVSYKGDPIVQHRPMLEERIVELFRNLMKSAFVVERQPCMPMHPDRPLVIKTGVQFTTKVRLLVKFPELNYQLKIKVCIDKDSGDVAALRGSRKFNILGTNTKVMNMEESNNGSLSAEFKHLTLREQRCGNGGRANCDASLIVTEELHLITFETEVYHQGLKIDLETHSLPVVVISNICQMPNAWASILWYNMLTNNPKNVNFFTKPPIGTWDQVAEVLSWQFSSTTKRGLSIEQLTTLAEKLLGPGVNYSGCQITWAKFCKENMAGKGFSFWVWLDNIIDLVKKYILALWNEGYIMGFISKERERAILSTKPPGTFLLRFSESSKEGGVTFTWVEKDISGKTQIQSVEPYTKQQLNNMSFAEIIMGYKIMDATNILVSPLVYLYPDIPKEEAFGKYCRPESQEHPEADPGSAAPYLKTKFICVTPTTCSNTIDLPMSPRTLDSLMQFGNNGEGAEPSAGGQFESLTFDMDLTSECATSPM
# Procedure: as §1
smiles,measurement,setting,value
CC(C)C[C@H](NC(=O)[C@H](Cc1ccc(OP(=O)(O)O)cc1)NC(=O)c1ccc(C#N)cc1)C(=O)NC(C)C [4-[(2S)-2-[(4-cyanophenyl)formamido]-2-{[(1S)-3-methyl-1-(propan-2-ylcarbamoyl)butyl]carbamoyl}ethyl]phenoxyphosphonic acid],IC50,[1],58 µM
same,IC50,[2],760 µM

# Reference: BindingDB's records for doi:10.1016/j.bmcl.2007.01.077 (Yale University, 2007)
